Measured values published in patent US6737383B1, “Herbicidal oxadiazolidines” (priority 1999, dated 2004).

Columns and labels:
[1] = tested on: blackgrass; test: Test B pre/postemergence blackgrass; format: in vivo, Alopecurus myosuroides
In short: (§1)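 Response is a visual 0-to-10 score relative to untreated plants, where 0 means no effect and 10 means complete control, taken twelve to sixteen days after application. Treatments went onto soil at planting and onto foliage of 1- to 4-leaf plants, using a surfactant-containing non-phytotoxic solvent.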

[2] = tested on: morningglory; test: Test B pre/postemergence morningglory; format: in vivo, Ipomoea hederacea
In short: as §1

[3] = tested on: rape; test: Test B pre/postemergence rape; format: in vivo, Brassica napus
In short: as §1

[4] = tested on: velvetleaf; test: Test B pre/postemergence velvetleaf; format: in vivo, Abutilon theophrasti
In short: as §1

[5] = tested on: crabgrass; test: Test B pre/postemergence crabgrass; format: in vivo, Digitaria sanguinalis
In short: as §1

[6] = tested on: wild oat; test: Test B pre/postemergence wild oat; format: in vivo, Avena fatua
In short: as §1

[7] = tested on: wheat; test: Test B pre/postemergence wheat; format: in vivo, Triticum aestivum
In short: as §1

[8] = tested on: soybean; test: Test B pre/postemergence soybean; format: in vivo, Glycine max
In short: as §1

[9] = tested on: smallflower flatsedge; test: Test B flood test smallflower flatsedge; format: in vivo, Cyperus difformis
In short: (§2)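 Each value is a visual injury score relative to controls, with 10 meaning complete control and 0 no effect. Evaluation took place twelve to sixteen days after the 2-leaf-stage plants were treated and kept in the greenhouse.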

[10] = tested on: purple nutsedge; test: Test B pre/postemergence purple nutsedge; format: in vivo, Cyperus rotundus
In short: as §1

[11] = tested on: surinam grass; test: Test B pre/postemergence surinam grass; format: in vivo, Brachiaria decumbens
In short: as §1

[12] = tested on: giant foxtail; test: Test B pre/postemergence giant foxtail; format: in vivo, Setaria faberii
In short: as §1

[13] = tested on: duck salad; test: Test B flood test duck salad; format: in vivo, Heteranthera limosa
In short: as §2

[14] = tested on: sugar beet; test: Test B pre/postemergence sugar beet; format: in vivo, Beta vulgaris
In short: as §1

[15] = tested on: cocklebur; test: Test B pre/postemergence cocklebur; format: in vivo, Xanthium strumarium
In short: as §1

[16] = tested on: corn; test: Test B pre/postemergence corn; format: in vivo, Zea mays
In short: as §1

[17] = Postemergence, Rate 125 g/ha, scale of 0 to 10 where 0 is no effect and 10 is complete control
[18] = Postemergence, Rate 250 g/ha, scale of 0 to 10, 0 is no effect, 10 is complete control
[19] = Postemergence, Rate 500 g/ha, scale of 0 to 10 where 0 is no effect and 10 is complete control
[20] = Preemergence, Rate 125 g/ha, scale of 0 to 10 where 0 is no effect and 10 is complete control
[21] = Preemergence, Rate 500 g/ha, scale of 0 to 10 where 0 is no effect and 10 is complete control
[22] = Rate 1000 g/ha, Preemergence, scale 0 to 10 (0 no effect, 10 complete control)
[23] = Postemergence, Rate 1000 g/ha, scale 0 to 10 (0 no effect, 10 complete control)
[24] = Pre-emergence, Rate 1000 g/ha, scale 0 to 10 (0 no effect, 10 complete control)
[25] = Rate 125 g/ha, under heading Pre-emergence, flood test species, visual evaluation after twelve to sixteen days
[26] = Rate 250 g/ha, Pre-emergence (flood test species), scale 0 to 10, 0 is no effect, 10 is complete control
[27] = Rate 500 g/ha, Pre-emergence section of Table B, 0 to 10 scale (0 no effect, 10 complete control)

CCOP(=O)(Cn1c(=O)on(C(=O)N(c2ccc(F)cc2)C(C)C)c1=O)OCC [Compound 587]
Plant response rating, Blackgrass [1, 17]: 3 | Blackgrass plant response rating [1, 18]: 3 | Plant response rating, Blackgrass [1, 19]: 6 | Blackgrass plant response rating [1, 20]: 3 | Blackgrass plant response rating (0 to 10 scale) ([1]; Preemergence, Rate 250 g/ha): 6 | Blackgrass plant response rating [1, 21]: 8 | Plant response rating, Blackgrass [1, 22]: 10 | Plant response rating, Morningglory [2, 17]: 4 | Morningglory plant response rating [2, 18]: 6 | Plant response rating, Morningglory [2, 19]: 7 | Morningglory plant response rating [2, 23]: 9 | Morningglory plant response rating [2, 20]: 0 | Morningglory plant response rating [2, 21]: 0 | Plant response rating, Morningglory [2, 22]: 3 | Plant response rating, Rape [3, 17]: 0 | Rape plant response rating [3, 18]: 0 | Plant response rating, Rape [3, 19]: 0 | Rape plant response rating [3, 23]: 0 | Rape plant response rating [3, 20]: 0 | Rape plant response rating [3, 21]: 1 | Plant response rating, Rape [3, 22]: 2 | Plant response rating, Velvetleaf [4, 17]: 0 | Velvetleaf plant response rating [4, 18]: 0 | Plant response rating, Velvetleaf [4, 19]: 0 | Velvetleaf plant response rating [4, 23]: 2 | Velvetleaf plant response rating [4, 20]: 0 | Velvetleaf plant response rating [4, 21]: 2 | Plant response rating, Velvetleaf [4, 22]: 4 | Plant response rating, Crabgrass [5, 17]: 0 | Plant response rating, Crabgrass [5, 19]: 2 | Crabgrass plant response rating [5, 23]: 3 | Crabgrass plant response rating [5, 20]: 6 | Crabgrass plant response rating [5, 21]: 9 | Plant response rating, Crabgrass [5, 22]: 10 | Plant response rating, Wild oats [6, 17]: 0 | Wild oats plant response rating [6, 18]: 0 | Plant response rating, Wild oats [6, 19]: 0 | Wild oats plant response rating [6, 23]: 0 | Wild oats plant response rating [6, 20]: 2 | Wild oats plant response rating [6, 21]: 9 | Plant response rating, Wild oats [6, 22]: 10 | Plant response rating, Wheat [7, 17]: 0 | Wheat plant response rating [7, 18]: 0 | Plant response rating, Wheat [7, 19]: 0 | Wheat plant response rating [7, 23]: 3 | Wheat plant response rating [7, 20]: 0 | Wheat plant response rating [7, 21]: 3 | Plant response rating, Wheat [7, 22]: 7 | Plant response rating, Soybean [8, 17]: 4 | Soybean plant response rating [8, 18]: 6 | Plant response rating, Soybean [8, 19]: 6 | Soybean plant response rating [8, 23]: 6 | Soybean plant response rating [8, 20]: 0 | Soybean plant response rating [8, 21]: 2 | Plant response rating, Soybean [8, 22]: 2 | S. Flatsedge plant response rating [9, 24]: 0 | S. Flatsedge plant response rating (0 to 10 scale, 0 is no effect, 10 is complete control) [9, 25]: 0 | S. Flatsedge plant response rating [9, 26]: 0 | S. Flatsedge plant response rating [9, 27]: 0 | Plant response rating, Nutsedge [10, 17]: 0 | Nutsedge plant response rating [10, 18]: 0 | Plant response rating, Nutsedge [10, 19]: 0 | Nutsedge plant response rating [10, 23]: 0 | Nutsedge plant response rating [10, 20]: 0 | Nutsedge plant response rating [10, 21]: 0 | Plant response rating, Nutsedge [10, 22]: 0 | Plant response rating, B. signalgrass [11, 17]: 0 | B. signalgrass plant response rating [11, 18]: 0 | Plant response rating, B. signalgrass [11, 19]: 0 | B. signalgrass plant response rating [11, 23]: 5 | B. signalgrass plant response rating [11, 20]: 0 | B. signalgrass plant response rating (0 to 10 scale, 0 is no effect, 10 is complete control) ([11]; Preemergence, Rate 250 g/ha): 5 | B. signalgrass plant response rating [11, 21]: 7 | Plant response rating, B. signalgrass [11, 22]: 10 | Plant response rating, Giant foxtail [12, 17]: 0 | Giant foxtail plant response rating [12, 18]: 0 | Plant response rating, Giant foxtail [12, 19]: 2 | Giant foxtail plant response rating [12, 23]: 4 | Giant foxtail plant response rating [12, 20]: 8 | Giant foxtail plant response rating [12, 21]: 9 | Plant response rating, Giant foxtail [12, 22]: 10 | Ducksalad plant response rating [13, 24]: 0 | Ducksalad plant response rating (0 to 10 scale, 0 is no effect, 10 is complete control) [13, 25]: 0 | Ducksalad plant response rating [13, 26]: 0 | Ducksalad plant response rating [13, 27]: 0 | Plant response rating, Sugarbeets [14, 17]: 0 | Sugarbeets plant response rating [14, 18]: 0 | Plant response rating, Sugarbeets [14, 19]: 0 | Sugarbeets plant response rating [14, 23]: 0 | Sugarbeets plant response rating [14, 20]: 0 | Sugarbeets plant response rating [14, 21]: 0 | Plant response rating, Sugarbeets [14, 22]: 3 | Plant response rating, Cocklebur [15, 17]: 0 | Cocklebur plant response rating [15, 18]: 0 | Plant response rating, Cocklebur [15, 19]: 0 | Cocklebur plant response rating [15, 23]: 0 | Cocklebur plant response rating [15, 20]: 0 | Cocklebur plant response rating (0 to 10 scale) ([15]; Preemergence, Rate 250 g/ha): 0 | Cocklebur plant response rating [15, 21]: 0 | Plant response rating, Cocklebur [15, 22]: 0 | Plant response rating, Corn [16, 17]: 0 | Corn plant response rating [16, 18]: 0 | Plant response rating, Corn [16, 19]: 0 | Corn plant response rating [16, 23]: 0 | Corn plant response rating [16, 20]: 0 | Corn plant response rating (0 to 10 scale) ([16]; Preemergence, Rate 250 g/ha): 0 | Corn plant response rating [16, 21]: 0 | Plant response rating, Corn [16, 22]: 4
